Experimental data as given in patent publication US20110009387A1, “HISTONE H2AX (HH2AX) BIOMARKER FOR FTI SENSITIVITY” (priority 2007, published 2011).

Legend:
sensitive cell lines = assay: Western blot of phospho-histone H2Ax induction; assay type: cell-based; details: 72 hours, 1000 nM
Experimental: (§1) The induction of phospho-histone H2Ax was analyzed by comparing the cellular expression levels of the phosphoprotein following exposure of cells to both DMSO (blank) and lonafarnib. The levels were evaluated by western blot. The quantity of induced phosphoprotein was determined qualitatively and by using densitometric analysis of bands on the blot.
(§2) Western blot protein analysis. Cells were lysed in RIPA buffer (50 mM Tris-HCl, 50 mM NaCl, 1% NP40, 0.5% Na-deoxycholate, 1 mM EDTA, 2.5 mM Na3VO4, 20 mM beta-glycerol phosphate, and complete protease inhibitor) and cleared by centrifugation. Protein concentration was determined using BCA reagent. Samples were separated by 14% SDS-PAGE, transferred to polyvinylidene difluoride (PVDF) membrane, immunoblotted and detected by chemiluminescence using the ECL detection reagents. Polyclonal antibodies used: Histone H2Ax and phos-Histone H2Ax (ser-139) (Cell Signaling Technology, Inc.; Danvers, Mass.). Densitometry was analyzed utilizing Quantity One software (Bio-Rad; Hercules, Calif.). Cells that were analyzed for inducation of phospho-H2Ax by western blot analysis were initially plated on plastic and then treated for 72 hours with 1000 nM of the FTI.

MCF-7 = assay: Western blot of phospho-histone H2Ax induction; assay type: cell-based, human; details: 72 hours, 1000 nM FTI vs DMSO, undetectable basal level
Experimental: as §1, §2

Panc1 [1] = assay: Western blot of phospho-histone H2Ax induction; assay type: cell-based; details: 72 hours, 1000 nM FTI vs DMSO
Experimental: as §1, §2

Colo205 [2] = assay: Western blot of phospho-histone H2Ax induction; assay type: cell-based; details: 72 hours, 1000 nM FTI vs DMSO
Experimental: as §1, §2

DLD-1 [3] = assay: Western blot of phospho-histone H2Ax induction; assay type: cell-based; details: 72 hours, 1000 nM FTI vs DMSO, densitometry
Experimental: as §1, §2

SNB75 [4] = assay: Western blot of phospho-histone H2Ax induction; assay type: cell-based; details: 72 hours, 1000 nM FTI vs DMSO, densitometry
Experimental: as §1, §2

T47D [5] = assay: Western blot of phospho-histone H2Ax induction; assay type: cell-based; details: 72 hours, 1000 nM FTI vs DMSO, densitometry
Experimental: as §1, §2

SNB19 [6] = assay: Western blot of phospho-histone H2Ax induction; assay type: cell-based; details: 72 hours, 1000 nM FTI vs DMSO, undetectable basal level
Experimental: as §1, §2

LNCap [7] = assay: Western blot of phospho-histone H2Ax induction; assay type: cell-based; details: 72 hours, 1000 nM FTI vs DMSO, densitometry
Experimental: as §1, §2

HT29 [8] = assay: Western blot of phospho-histone H2Ax induction; assay type: cell-based; details: 72 hours, 1000 nM FTI vs DMSO, densitometry
Experimental: as §1, §2

MiaPaca [9] = assay: Western blot of phospho-histone H2Ax induction; assay type: cell-based; details: 72 hours, 1000 nM FTI vs DMSO, densitometry
Experimental: as §1, §2

SKOV3 [10] = assay: Western blot of phospho-histone H2Ax induction; assay type: cell-based; details: 72 hours, 1000 nM FTI vs DMSO, densitometry
Experimental: as §1, §2

A2780 [11] = assay: Western blot of phospho-histone H2Ax induction; assay type: cell-based; details: 72 hours, 1000 nM FTI vs DMSO, undetectable basal level
Experimental: as §1, §2

DU145 [12] = assay: Western blot of phospho-histone H2Ax induction; assay type: cell-based; details: 72 hours, 1000 nM FTI vs DMSO, densitometry
Experimental: as §1, §2

AsPc1 [13] = assay: Western blot of phospho-histone H2Ax induction; assay type: cell-based; details: 72 hours, 1000 nM FTI vs DMSO, densitometry
Experimental: as §1, §2

TOV112D [14] = assay: Western blot of phospho-histone H2Ax induction; assay type: cell-based; details: 72 hours, 1000 nM FTI vs DMSO, undetectable basal level
Experimental: as §1, §2

MDA-435 = assay: Western blot of phospho-histone H2Ax induction; assay type: cell-based; details: 72 hours, 1000 nM FTI vs DMSO, densitometry
Experimental: as §1, §2

Panc1 [15] = assay: Soft agar growth assay (colony area); assay type: cell-based; design: key to Cells designated sensitive (S) or resistant (R) to lonafarnib: sensitive (S); resistant (R); details: Panc1, pancreas
Experimental: (§3) Cells were grown in soft agar and the IC50 for lonafarnib was determined. Cells were designated sensitive (S) or resistant (R). The IC50 value was determined by comparing colony areas of the cell lines exposed to the various doses of FTI. IC50 values were calculated with the XLfit program (idbs; Guildford, United Kingdom).
(§4) Growth assays. Soft agar assays were performed in 6-well dishes by seeding 10,000-20,000 cells in each well. Cells were plated in top 0.35% low melting point agarose in DMEM:F12 with 10% fetal bovine serum over a bottom 0.6% agarose feeding layer. Cells were grown in the presence of lonafarnib for 14 days and colonies were stained with 1 mg/ml MIT (dimethylthiazol-diphenyl-terrazolium bromide) in PBS. The plates were scanned and the colony area was determined as the sum of the areas stained by MTT.

Colo205 [16] = assay: Soft agar growth assay (colony area); assay type: cell-based; design: key to Cells designated sensitive (S) or resistant (R) to lonafarnib: sensitive (S); resistant (R); details: Colo205, colon
Experimental: as §3, §4

DLD-1 [17] = assay: Soft agar growth assay (colony area); assay type: cell-based; design: key to Cells designated sensitive (S) or resistant (R) to lonafarnib: sensitive (S); resistant (R); details: DLD-1, colon
Experimental: as §3, §4

SNB75 [18] = assay: Soft agar growth assay (colony area); assay type: cell-based; design: key to Cells designated sensitive (S) or resistant (R) to lonafarnib: sensitive (S); resistant (R); details: SNB75, glioma
Experimental: as §3, §4

T47D [19] = assay: Soft agar growth assay (colony area); assay type: cell-based; design: key to Cells designated sensitive (S) or resistant (R) to lonafarnib: sensitive (S); resistant (R); details: breast
Experimental: as §3, §4

SNB19 [20] = assay: Soft agar growth assay (colony area); assay type: cell-based; design: key to Cells designated sensitive (S) or resistant (R) to lonafarnib: sensitive (S); resistant (R); details: SNB19, glioma
Experimental: as §3, §4

LNCap [21] = assay: Soft agar growth assay (colony area); assay type: cell-based; design: key to Cells designated sensitive (S) or resistant (R) to lonafarnib: sensitive (S); resistant (R); details: prostate
Experimental: as §3, §4

HT29 [22] = assay: Soft agar growth assay (colony area); assay type: cell-based; design: key to Cells designated sensitive (S) or resistant (R) to lonafarnib: sensitive (S); resistant (R); details: HT29, colon
Experimental: as §3, §4

MiaPaca [23] = assay: Soft agar growth assay (colony area); assay type: cell-based; design: key to Cells designated sensitive (S) or resistant (R) to lonafarnib: sensitive (S); resistant (R); details: pancreas
Experimental: as §3, §4

SKOV3 [24] = assay: Soft agar growth assay (colony area); assay type: cell-based; design: key to Cells designated sensitive (S) or resistant (R) to lonafarnib: sensitive (S); resistant (R); details: SKOV3, ovarian
Experimental: as §3, §4

A2780 [25] = assay: Soft agar growth assay (colony area); assay type: cell-based; design: key to Cells designated sensitive (S) or resistant (R) to lonafarnib: sensitive (S); resistant (R); details: A2780, ovarian
Experimental: as §3, §4

DU145 [26] = assay: Soft agar growth assay (colony area); assay type: cell-based; design: key to Cells designated sensitive (S) or resistant (R) to lonafarnib: sensitive (S); resistant (R); details: DU145, prostate
Experimental: as §3, §4

AsPc1 [27] = assay: Soft agar growth assay (colony area); assay type: cell-based; design: key to Cells designated sensitive (S) or resistant (R) to lonafarnib: sensitive (S); resistant (R); details: AsPc1, pancreas
Experimental: as §3, §4

MDA435 = assay: Soft agar growth assay (colony area); assay type: cell-based; design: key to Cells designated sensitive (S) or resistant (R) to lonafarnib: sensitive (S); resistant (R); details: MDA435, breast
Experimental: as §3, §4

TOV112D [28] = assay: Soft agar growth assay (colony area); assay type: cell-based; design: key to Cells designated sensitive (S) or resistant (R) to lonafarnib: sensitive (S); resistant (R); details: ovarian
Experimental: as §3, §4

MCF7 = assay: Soft agar growth assay (colony area); assay type: cell-based, human; design: key to Cells designated sensitive (S) or resistant (R) to lonafarnib: sensitive (S); resistant (R); details: MCF7, breast
Experimental: as §3, §4

[29] = Homo sapiens, 336 h, 14 days, read-out: Lonafarnib IC50

NC(=O)N1CCC(CC(=O)N2CCC(C3c4ncc(Br)cc4CCc4cc(Cl)cc(Br)c43)CC2)CC1 (single isomer, unassigned) [inactive enantiomer of lonafarnib]
phosphorylation of histone-H2Ax upon treatment (sensitive cell lines): does not induce

NC(=O)N1CCC(CC(=O)N2CCC([C@H]3c4ncc(Br)cc4CCc4cc(Cl)cc(Br)c43)CC2)CC1 [Lonafarnib, lonafarnib]
phospho-histone H2Ax expression upon treatment (MCF-7): induced to detectable levels
induction of phos-histone H2Ax upon treatment (Panc1 [1]): no detectable induction
induction of phos-histone H2Ax upon treatment (Colo205 [2]): no detectable induction
induction of phospho-histone H2Ax (DLD-1 [3]): 4.3 fold
induction of phospho-histone H2Ax (difference in OD values) (SNB75 [4]): 1 fold
induction of phospho-histone H2Ax (difference in OD values) (T47D [5]): 1 fold
phospho-histone H2Ax expression upon treatment (SNB19 [6]): induced to detectable levels
induction of phospho-histone H2Ax (LNCap [7]): 2.2 fold
induction of phospho-histone H2Ax (difference in OD values) (HT29 [8]): 1 fold
induction of phospho-histone H2Ax (MiaPaca [9]): 2.3 fold
induction of phospho-histone H2Ax (difference in OD values) (SKOV3 [10]): 1 fold
phospho-histone H2Ax expression upon treatment (A2780 [11]): induced to detectable levels
induction of phospho-histone H2Ax (difference in OD values) (DU145 [12]): 1 fold
induction of phospho-histone H2Ax (difference in OD values) (AsPc1 [13]): 1 fold
phospho-histone H2Ax expression upon treatment (TOV112D [14]): induced to detectable levels
induction of phospho-histone H2Ax (MDA-435): 6.5 fold
IC50 (Panc1 [15]; Homo sapiens, PANC-1, 336 h, 14 days, read-out: Lonafarnib IC50): 440 nM
Cells designated sensitive (S) or resistant (R) to lonafarnib (Panc1 [15]): (S)
Cells designated sensitive (S) or resistant (R) to lonafarnib (Colo205 [16]): (S)
IC50 (Colo205 [16]; Homo sapiens, COLO 205, 336 h, 14 days, read-out: Lonafarnib IC50): 330 nM
Cells designated sensitive (S) or resistant (R) to lonafarnib (DLD-1 [17]): (S)
IC50 (DLD-1 [17]; [29]): 320 nM
IC50 (SNB75 [18]; Homo sapiens, SNB-75, 336 h, 14 days, read-out: Lonafarnib IC50): > 3000 nM
Cells designated sensitive (S) or resistant (R) to lonafarnib (SNB75 [18]): (R)
IC50 (T47D [19]; [29]): 1800 nM
Cells designated sensitive (S) or resistant (R) to lonafarnib (T47D [19]): (R)
IC50 (SNB19 [20]; Homo sapiens, SNB-19, 336 h, 14 days, read-out: Lonafarnib IC50): 230 nM
Cells designated sensitive (S) or resistant (R) to lonafarnib (SNB19 [20]): (S)
IC50 (LNCap [21]; [29]): 10 nM
Cells designated sensitive (S) or resistant (R) to lonafarnib (LNCap [21]): (S)
Cells designated sensitive (S) or resistant (R) to lonafarnib (HT29 [22]): (R)
IC50 (HT29 [22]; Homo sapiens, HT-29, 336 h, 14 days, read-out: Lonafarnib IC50): 940 nM
IC50 (MiaPaca [23]; Homo sapiens, MIA PaCa-2, 336 h, 14 days, read-out: Lonafarnib IC50): 240 nM
Cells designated sensitive (S) or resistant (R) to lonafarnib (MiaPaca [23]): (S)
IC50 (SKOV3 [24]; Homo sapiens, SK-OV-3, 336 h, 14 days, read-out: Lonafarnib IC50): 2000 nM
Cells designated sensitive (S) or resistant (R) to lonafarnib (SKOV3 [24]): (R)
Cells designated sensitive (S) or resistant (R) to lonafarnib (A2780 [25]): (S)
IC50 (A2780 [25]; [29]): 80 nM
Cells designated sensitive (S) or resistant (R) to lonafarnib (DU145 [26]): (R)
IC50 (DU145 [26]; Homo sapiens, DU-145, 336 h, 14 days, read-out: Lonafarnib IC50): 1600 nM
Cells designated sensitive (S) or resistant (R) to lonafarnib (AsPc1 [27]): (R)
IC50 (AsPc1 [27]; [29]): 1000 nM
IC50 (MDA435; 336 h, 14 days, read-out: Lonafarnib IC50): 350 nM
Cells designated sensitive (S) or resistant (R) to lonafarnib (MDA435): (S)
IC50 (TOV112D [28]; [29]): 100 nM
Cells designated sensitive (S) or resistant (R) to lonafarnib (TOV112D [28]): (S)
IC50 (MCF7; [29]): 10 nM
Cells designated sensitive (S) or resistant (R) to lonafarnib (MCF7): (S)
